PubChem BioAssay (NCI)
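Grown in 96-well plates, cells were treated for 48 hours with each compound at five concentrations. Insufficient inhibition: endpoint recorded as highest concentration tested. TGI is the concentration that stops growth completely.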

Tests used:
Experiment in all cases: NCI tumour cell line growth inhibition, 48 h
[1] = system: A549 NSCLC
[2] = system: OVCAR-5 ovarian
[3] = system: IGROV1 ovarian
[4] = system: COLO 205 colon
[5] = system: OVCAR-4 ovarian
[6] = system: ACHN renal
[7] = system: CAKI-1 renal
[8] = system: SNB-75 CNS
[9] = system: SNB-19 CNS
[10] = system: SF-268 CNS
[11] = system: DU-145 prostate
[12] = system: HCT-15 colon
[13] = system: HOP-62 NSCLC
[14] = system: OVCAR-8 ovarian
[15] = system: A498 renal
[16] = system: U251 CNS
[17] = system: RXF 393 renal
[18] = system: MDA-MB-231 breast
[19] = system: HOP-92 NSCLC
[20] = system: LOX IMVI melanoma
[21] = system: T-47D breast
[22] = system: MDA-N
[23] = system: SF-295 CNS
[24] = system: NCI-H460 lung
[25] = system: SF-539 CNS
[26] = system: NCI-H23 lung
[27] = system: UACC-257 melanoma
[28] = system: BT-549 breast
[29] = system: SK-OV-3 ovarian
[30] = system: HT29 colon
[31] = system: RPMI-8226 leukemia
[32] = system: EKVX NSCLC
[33] = system: 786-0 renal
[34] = system: KM12 colon
[35] = system: MDA-MB-435
[36] = system: NCI/ADR-RES ovarian
[37] = system: NCI-H522 lung
[38] = system: MOLT-4 leukemia
[39] = system: SK-MEL-28 melanoma
[40] = system: UO-31 renal
[41] = system: HCT-116 colon
[42] = system: MALME-3M melanoma
[43] = system: TK-10 renal
[44] = system: NCI-H226 lung
[45] = system: SN12C renal
[46] = system: K-562 leukemia
[47] = system: SW-620 colon
[48] = system: SK-MEL-5 melanoma
[49] = system: OVCAR-3 ovarian
[50] = system: M14 melanoma
[51] = system: UACC-62 melanoma
[52] = system: CCRF-CEM leukemia
[53] = system: MCF7 breast
[54] = system: SR leukemia
[55] = system: SK-MEL-2 melanoma
[56] = system: PC-3 prostate
[57] = system: HCC-2998 colon
[58] = system: HL-60(TB) leukemia

N#CC(c1cc(Cl)ncn1)c1nc2cc(C(F)(F)F)ccc2s1 (configuration not stated) showed a TGI [1] of over 100 µM, a TGI [2] of 34.3 µM and a TGI [3] of 20.3 µM. The TGI [4] was 10.8 µM, the TGI [5] was 19.5 µM and the TGI [6] was 59.6 µM. For the same compound, the TGI [7] was over 100 µM, the TGI [8] was 25.4 µM and the TGI [9] was 22.6 µM. It also gave a TGI [10] of 19.4 µM, a TGI [11] of over 100 µM and a TGI [12] of 13.6 µM. The TGI [13] was 30.9 µM, the TGI [14] was 13.5 µM and the TGI [15] was 56.2 µM. For the same compound, the TGI [16] was 17.1 µM, the TGI [17] was 19.7 µM and the TGI [18] was 33.9 µM. It also gave a TGI [19] of 5.92 µM, a TGI [20] of 11.8 µM and a TGI [21] of over 100 µM. The TGI [22] was 15.7 µM, the TGI [23] was 29.2 µM and the TGI [24] was over 100 µM. It also gave a TGI [25] of 20.9 µM, a TGI [26] of 6.97 µM and a TGI [27] of over 100 µM. The TGI [28] was 9.5 µM, the TGI [29] was 53.7 µM and the TGI [30] was 12.3 µM. For the same compound, the TGI [31] was over 100 µM, the TGI [32] was 32.3 µM and the TGI [33] was 13.4 µM. The TGI [34] was 18.7 µM, the TGI [35] was over 100 µM and the TGI [36] was 9.5 µM. For the same compound, the TGI [37] was 3.61 µM, the TGI [38] was over 100 µM and the TGI [39] was 37.4 µM. The TGI [40] was 17.8 µM, the TGI [41] was 8.9 µM and the TGI [42] was 17.5 µM. The TGI [43] was over 100 µM, the TGI [44] was 92 µM and the TGI [45] was over 100 µM. For the same compound, the TGI [46] was over 100 µM, the TGI [47] was 17.8 µM and the TGI [48] was 26.2 µM. For the same compound, the TGI [49] was 17.4 µM and the TGI [50] was 18.7 µM.
Work on COC(=O)[C@]1(c2cc3ccccc3[nH]2)CC2CNC1C1OC(C)(C)OC21 (some centres not stated) yielded a TGI [1] of over 100 µM, a TGI [2] of over 100 µM and a TGI [3] of over 100 µM. The TGI [4] was over 100 µM, the TGI [5] was over 100 µM and the TGI [51] was over 100 µM. For the same compound, the TGI [52] was over 100 µM, the TGI [6] was over 100 µM and the TGI [53] was over 100 µM. For the same compound, the TGI [7] was over 100 µM, the TGI [8] was over 100 µM and the TGI [9] was over 100 µM. It also gave a TGI [10] of over 100 µM, a TGI [11] of over 100 µM and a TGI [12] of over 100 µM. It also gave a TGI [13] of over 100 µM, a TGI [14] of over 100 µM and a TGI [16] of over 100 µM. It also gave a TGI [17] of over 100 µM, a TGI [18] of over 100 µM and a TGI [19] of over 100 µM. It also gave a TGI [20] of over 100 µM, a TGI [21] of over 100 µM and a TGI [22] of over 100 µM. It also gave a TGI [23] of over 100 µM, a TGI [24] of over 100 µM and a TGI [25] of over 100 µM. The TGI [26] was over 100 µM, the TGI [27] was over 100 µM and the TGI [54] was over 100 µM. It also gave a TGI [28] of over 100 µM, a TGI [29] of over 100 µM and a TGI [30] of over 100 µM. It also gave a TGI [31] of over 100 µM, a TGI [32] of over 100 µM and a TGI [33] of over 100 µM. The TGI [34] was over 100 µM, the TGI [35] was over 100 µM and the TGI [36] was over 100 µM. For the same compound, the TGI [37] was over 100 µM, the TGI [55] was over 100 µM and the TGI [38] was over 100 µM. For the same compound, the TGI [56] was over 100 µM, the TGI [39] was over 100 µM and the TGI [40] was over 100 µM. It also gave a TGI [41] of over 100 µM, a TGI [57] of over 100 µM and a TGI [42] of over 100 µM. It also gave a TGI [43] of over 100 µM, a TGI [44] of over 100 µM and a TGI [45] of over 100 µM. It also gave a TGI [46] of over 100 µM, a TGI [58] of over 100 µM and a TGI [47] of over 100 µM. For the same compound, the TGI [48] was over 100 µM, the TGI [49] was over 100 µM and the TGI [50] was over 100 µM.
